Results reported in patent US20260216197A1, “WRN HELICASE INHIBITOR” (SUZHOU PUHE BIOPHARMA CO., LTD., priority 2022, published 2026).
Where two headings read alike, the source gives them in different places.

Experiments:
[1] = molecular target: WRN helicase (Homo sapiens, UniProt Q14191); test: WRN helicase hydrolysis/unwinding of double-stranded DNA (fluorescence); assay type: biochemical
Protocol: The activity of the molecules of the present disclosure on the hydrolysis of double-stranded PP-6TR DNA by WRN helicase was tested.
The working solution and buffer were prepared, and the test compound was dissolved in DMSO followed by a4-fold dilution (with a final concentration of 10 μM as the starting concentration). Then, 0.2 μL of the test compound solution was added to a384-well plate, followed by 10 μL of (2×) WRN enzyme solution. The mixture was incubated in the dark for 30 minutes, after which 10 μL of substrate detection solution containing double-stranded DNA was added to initiate the reaction (DNA length: 19 bp, labeled with TAMRA at the 3′ end and BHQ2 at the 5′ end). The mixture was incubated at room temperature for 60 minutes. The inhibitory activity (IC50) against the WRN enzyme was calculated based on the fluorescence change (Ex530/Em590) between the blank group (DMSO) and the compound group.

[2] = tested on: MSS colorectal cancer HT-29 cell line; test: 2D anti-proliferative activity, MSS HT-29 cells (CTG, 5 days); assay type: cell-based; conditions: Homo sapiens, 120 h
Protocol: The molecules of the present disclosure were tested for their anti-proliferative activity against MSS tumor cells.
(§1) The MSS HT-29 colorectal cancer cells were cultured in McCoy's 5A medium containing 10% FBS and 1% penicillin-streptomycin in a 37° C., 5% CO2 constant temperature incubator. A 40 μL cell suspension was added to each well of a 384-well microplate. Using Echo, 40 nL of compounds at different concentrations was dispensed into each well, followed by incubation in a 37° C., 5% CO2 constant temperature incubator for 5 days. Then, 40 μL of CTG solution (Promega, Cat No. G7573) was added to each well, and the plate was incubated in the dark in a 37° C., 5% CO2 constant temperature incubator for 30 minutes. Luminescence was measured using an Envision multi-function microplate reader (Perkin Elmer, Model: Envision 2104). The luminescent signal was proportional to the amount of ATP in the system, and the amount of ATP directly represented the number of living cells in the system.

[3] = tested on: MSI-H colorectal cancer SW48 cell line; test: 2D anti-proliferative activity, MSI-H SW48 cells (CTG, 5 days); assay type: cell-based; conditions: for inhibition at 38.15 pM: 0.038146973 nM; for inhibition at 0.000152588 µM: 0.152587891 nM; for inhibition at 0.000610352 µM: 0.610351563 nM; for inhibition at 0.00244141 µM: 2.44140625 nM; for inhibition at 0.00976562 µM: 9.765625 nM; for inhibition at 0.0390625 µM: 39.0625 nM; for inhibition at 0.15625 µM: 156.25 nM; for inhibition at 0.625 µM: 625 nM; for inhibition at […]: 2500 nM; for inhibition at 10 µM: 10000 nM
Protocol: The molecules of the present disclosure were tested for their anti-proliferative activity against MSI-H tumor cells.
The proliferation of tumor cells with microsatellite instability MSI-H is sensitive to WRN inhibitors, while the proliferation of microsatellite stable (MSS) tumor cells is insensitive to WRN inhibitors. By testing the activities of the two, it is shown that the molecules of the present disclosure have an inhibitory and synthetic lethal effect on WRN at the cellular level.
as §1, with “MSI-unstable SW48” for “MSS HT-29”, “RPMI 1640” for “McCoy's 5A”

[4] = Liver microsome stability test; assay type: in vitro ADME; conditions: human liver microsomes 0.5 mg/mL, compound 1 μM, NADPH 1 mM, 60 minutes
Protocol: The liver microsome stability test of the compounds is as follows:
The compounds of the present disclosure were subjected to a liver microsome stability test. The compounds to be tested were co-incubated with liver microsomes of different species with or without the addition of NADPH. The final concentration of the compounds to be tested in the test system was 1 μM, the final concentration of NADPH was 1 mM, and the final concentration of liver microsomes was 0.5 mg/mL.

[5] = Pharmacokinetic evaluation in mice; assay type: in vivo, CD1 female mice; conditions: for AUC(0-t): read-out: AUC0-24
Protocol: CD1 female mice were used as test animals and the drug was administered orally/intravenously (oral dosage: 10 mg/kg, intravenous dosage: 2 mg/kg).
Assay protocol: The oral group consisted of 3 mice per group (vehicle: 10% Hβ-CD-pH7.4), and the intravenous group consisted of 3 mice per group. […] The blood concentrations in plasma after oral and intravenous administration of mice were determined by LC/MS/MS, respectively.

[6] = Homo sapiens, read-out: Average value/ Inhibition rate
[7] = Homo sapiens, read-out: Test 1/ Inhibition rate
[8] = Homo sapiens, read-out: Test 2/ Inhibition rate
[9] = female, CD1, mouse, plasma, IV 2 mg/kg
[10] = female, CD1, mouse, plasma, PO 10 mg/kg

Chain of WRN helicase (Q14191 whole entry): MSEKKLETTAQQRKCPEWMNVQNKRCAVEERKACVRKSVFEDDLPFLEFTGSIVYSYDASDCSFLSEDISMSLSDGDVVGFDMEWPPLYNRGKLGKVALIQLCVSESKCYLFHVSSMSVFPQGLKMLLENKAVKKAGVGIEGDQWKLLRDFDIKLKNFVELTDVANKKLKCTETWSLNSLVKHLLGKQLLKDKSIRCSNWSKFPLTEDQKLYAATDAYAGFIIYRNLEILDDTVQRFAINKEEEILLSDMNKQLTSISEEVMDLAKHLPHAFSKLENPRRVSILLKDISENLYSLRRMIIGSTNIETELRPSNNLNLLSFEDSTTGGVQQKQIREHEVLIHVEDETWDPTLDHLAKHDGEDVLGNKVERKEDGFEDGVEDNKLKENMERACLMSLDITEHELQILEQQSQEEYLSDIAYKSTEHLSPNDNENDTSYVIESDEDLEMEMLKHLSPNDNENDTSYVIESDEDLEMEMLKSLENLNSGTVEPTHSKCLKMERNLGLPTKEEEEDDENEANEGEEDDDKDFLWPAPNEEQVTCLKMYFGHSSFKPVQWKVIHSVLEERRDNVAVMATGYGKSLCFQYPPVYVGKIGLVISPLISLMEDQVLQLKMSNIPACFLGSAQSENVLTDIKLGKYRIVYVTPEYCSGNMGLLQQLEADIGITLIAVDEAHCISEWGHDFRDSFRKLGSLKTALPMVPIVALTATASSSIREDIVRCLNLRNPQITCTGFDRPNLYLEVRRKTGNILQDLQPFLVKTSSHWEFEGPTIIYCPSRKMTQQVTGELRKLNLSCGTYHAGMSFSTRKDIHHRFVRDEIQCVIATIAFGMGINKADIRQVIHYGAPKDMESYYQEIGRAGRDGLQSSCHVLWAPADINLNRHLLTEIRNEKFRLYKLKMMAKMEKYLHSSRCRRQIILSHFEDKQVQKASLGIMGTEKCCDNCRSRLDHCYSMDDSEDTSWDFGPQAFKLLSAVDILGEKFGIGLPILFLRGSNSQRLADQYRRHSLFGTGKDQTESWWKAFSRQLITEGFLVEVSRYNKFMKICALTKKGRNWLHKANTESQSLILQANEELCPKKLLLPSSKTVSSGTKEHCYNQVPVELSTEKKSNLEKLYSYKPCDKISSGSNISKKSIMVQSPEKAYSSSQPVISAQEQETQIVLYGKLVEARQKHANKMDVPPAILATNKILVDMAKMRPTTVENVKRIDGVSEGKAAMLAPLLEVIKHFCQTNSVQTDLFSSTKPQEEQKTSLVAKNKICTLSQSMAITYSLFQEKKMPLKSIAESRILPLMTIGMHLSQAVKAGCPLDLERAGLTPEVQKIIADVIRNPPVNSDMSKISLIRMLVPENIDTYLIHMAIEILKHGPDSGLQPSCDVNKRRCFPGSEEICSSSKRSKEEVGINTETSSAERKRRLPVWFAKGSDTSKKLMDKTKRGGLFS

CCc1c(N2CCN(C(=O)c3ncnc(C)c3O)CC2)c(=O)n2nc(C3=CCOCC3)nc2n1CC(=O)Nc1ccc(C(F)(F)F)c2sccc12 [Compound H13]
IC50 [1]: 1.2 nM
IC50 [2]: > 10000 nM
inhibitory activity on SW48 cells ([3]; 39 nM): high inhibitory activity
inhibition at 38.15 pM [3, 6]: -1.31%
inhibition at 38.15 pM [3, 7]: -1.51%
inhibition at 38.15 pM [3, 8]: -1.1%
inhibition at 0.000152588 µM [3, 6]: 0.853%
inhibition at 0.000152588 µM [3, 7]: 2.48%
inhibition at 0.000152588 µM [3, 8]: -0.775%
inhibition at 0.000610352 µM [3, 6]: -1.43%
inhibition at 0.000610352 µM [3, 7]: -3.56%
inhibition at 0.000610352 µM [3, 8]: 0.706%
inhibition at 0.00244141 µM [3, 6]: -3.17%
inhibition at 0.00244141 µM [3, 7]: 0.0291%
inhibition at 0.00244141 µM [3, 8]: -6.36%
inhibition at 0.00976562 µM [3, 6]: 0.332%
inhibition at 0.00976562 µM [3, 7]: -3.9%
inhibition at 0.00976562 µM [3, 8]: 4.57%
inhibition at 0.0390625 µM [3, 6]: 76.4%
inhibition at 0.0390625 µM [3, 7]: 76.2%
inhibition at 0.0390625 µM [3, 8]: 76.6%
inhibition at 0.15625 µM [3, 6]: 97.6%
inhibition at 0.15625 µM [3, 7]: 98.6%
inhibition at 0.15625 µM [3, 8]: 96.6%
inhibition at 0.625 µM [3, 6]: 99.4%
inhibition at 0.625 µM [3, 7]: 99.6%
inhibition at 0.625 µM [3, 8]: 99.2%
inhibition at […] [3, 6]: 99.6%
inhibition at […] [3, 7]: 99.7%
inhibition at […] [3, 8]: 99.5%
inhibition at 10 µM [3, 6]: 101%
inhibition at 10 µM [3, 7]: 103%
inhibition at 10 µM [3, 8]: 100%
IC50 ([3]; Homo sapiens, 120 h, 5 days): 28 nM
CLint scaled at 1 μM [4]: 7.9 mL/min/kg
microsomal CLint at 1 μM ([4]; read-out: Human Clint μL/min/mg Protein): 6.3 µL/min/mg
F ([5]; PO 10 mg/kg vs IV 2 mg/kg): 24%
clearance [5, 9]: 42.9 mL/min/kg
AUC(0-t) [5, 9]: 722 ng·h/mL
C0 ([5]; female, CD1, mouse, plasma, IV 2 mg/kg, read-out: C0): 2530 ng/mL
half-life [5, 10]: 66 min
AUC(0-t) [5, 10]: 943 ng·h/mL
Cmax ([5]; female, CD1, mouse, plasma, PO 10 mg/kg, read-out: Cmax): 551 ng/mL
Tmax ([5]; female, CD1, mouse, plasma, PO 10 mg/kg, read-out: Tmax): 30 min
